From patent US6858627B2, “Glucocorticoid mimetics, methods of making them, pharmaceutical compositions, and uses thereof” (Boehringer Ingelheim Pharmaceuticals, Inc., priority 2002, dated 2005)

Key:
glucocorticoid receptor [1] = assay: Glucocorticoid receptor cell assays, antagonist activity; type: cell-based; conditions: assay not given
Experimental: B. Glucocorticoid Receptor Cell Assays
Evaluation of agonist or antagonist activity of compounds binding to the glucocorticoid receptor may be determined by any of the assays.
3. Modulation of Tyrosine Aminotransferase (TAT) Induction in Rat Hepatoma Cells
Testing of compounds for agonist or antagonist activity in induction of tyrosine aminotransferase (TAT) in rat hepatoma cells.
H4-II-E-C3 cells were incubated overnight in 96 well plates (20,000 cells/100 μL/well) in MEM medium containing 10% heat inactivated FBS and 1% nonessential amino acids. On the next day, cells were stimulated with the indicated concentrations of dexamethasone or test compound (dissolved in DMSO, final DMSO concentration 0.2%) for 18 hours. Control cells were treated with 0.2% DMSO. After 18 hours, the cells were lysed in a buffer containing 0.1% Triton X-100 and the TAT activity was measured in a photometric assay using tyrosine and alpha-ketoglutarate as substrates. […]
Cells were cultured overnight in DMEM medium without phenol red, supplemented with 3% CCS (charcoal treated calf serum) and then transferred to 96 well plates (15,000 cells/100 μL/well). […] After 18 hours, the cells were lysed with cell lysis reagent (Promega, Cat. No. E1531), luciferase assay reagent (Promega, Cat. No. E1501) was added and the glow luminescence was measured using a luminometer (BMG, Offenburg). […]

glucocorticoid receptor [2] = assay: Glucocorticoid receptor function, one or more of the above assays (binding and cell assays); type: cell-based; conditions: in one or more of the above assays; assay not given
Experimental: Compounds of the invention were evaluated for binding to the steroid receptor by a fluorescence polarization competitive binding assay. Detailed descriptions for preparation of recombinant glucocorticoid receptor (GR) complex used in the assay is described in U.S. Patent Application Publication No. 2003/0,017,503, filed May 20, 2002, and the corresponding U.S. provisional application No. 60/291,877, filed May 18, 2001, each of which is incorporated herein by reference in its entirety. Preparation of the tetramethyl rhodamine (TAMRA)-labeled dexamethasone probe was accomplished using a standard literature procedure (M. Pons et al., J. Steroid Biochem., 1985, 22, pp. 267-273).
This assay uses fluorescence polarization (FP) to quantitate the ability of test compounds to compete with tetramethyl rhodamine (TAMRA)-labeled dexamethasone for binding to a human glucocorticoid receptor (GR) complex prepared from an insect expression system. […]
The binding reactions were incubated for 1 hour at room temperature and then read for fluorescence polarization in the LJL Analyst set to 550 nm excitation and 580 nm emission, with the Rhodamine 561 dichroic mirror installed. IC50 values were determined by iterative non-linear curve fitting of the FP signal data to a 4-parameter logistic equation. […]

| Structure (SMILES) | activity as antagonists in cellular assays (glucocorticoid receptor [1]) | activity as an agonist of the glucocorticoid receptor function (glucocorticoid receptor [2]) |
| --- | --- | --- |
| C=CCOC(C)C1=CC(C)(C)Nc2ccc(-c3ccccc3OC)cc21 (stereo not drawn) [4-(1-Allyloxyethyl)-6-(2-methoxyphenyl)-2,2-dimethyl-1,2-dihydroquinoline] | potent activity as antagonists | – |
| C=CCOC(C)C1=CC(C)(C)Nc2ccc(-c3cc(F)ccc3OC)cc21 (stereo not drawn) [4-(1-Allyloxyethyl)-6-(5-fluoro-2-methoxyphenyl)-2,2-dimethyl-1,2-dihydroquinoline] | – | activity as an agonist |
| C=CCSCC1=CC(C)(C)Nc2ccc(-c3ccccc3OC)cc21 [4-Allylsulfanylmethyl-6-(2-methoxyphenyl)-2,2-dimethyl-1,2-dihydroquinoline] | potent activity as antagonists | – |
